We go through 14 molecules from patent publication US20260176262A1, “KRAS INHIBITORS, PREPARATION METHOD THEREFOR, AND PHARMACEUTICAL USE THEREOF” (ABBISKO THERAPEUTICS CO., LTD., priority 2021, published 2026).

Read-outs that look alike come from different tables or passages of the source. Bounds are passed on as bounds.

Usually IC50 stands for the concentration that inhibits the measured activity by half.

In one assay the target is KRAS^G12D/cRAF (Homo sapiens, UniProt P01116, G12D). The experiment in a line: KRAS G12D/cRAF binding test (Alphalisa). Conditions: His-tagged KRAS G12D + GMPPNP, GST-tagged cRAF. How it is done:
The compound was dissolved in 100% DMSO at a starting concentration of 5 mM and diluted in DMSO with a 3-fold serial dilution method for a total of 8 concentration points. 1 μL of the compound or DMSO at each concentration point was added into 99 μL of the experimental buffer to obtain 10× stock solution.
• 1) 4 μL of the working mixture solution of His-tagged KRAS^G12D and GMPPNP was added to the 384-well plate. • 2) The 10× compound stock solution or 1% DMSO was added to the 384-well plate. • 3) The plate was centrifuged at 1000 rpm for 1 minute. • 4) 4 μL of GST-tagged cRAF solution was added to the 384-well plate. • 5) The plate was centrifuged at 1000 rpm for 1 minute. • 6) The plate was incubated at room temperature for 15 minutes. • 7) 10 μL of detection working solution was added to the 384-well plate. • 8) The plate was centrifuged at 1000 rpm for 1 minute. • 9) The plate was incubated at room temperature for 60 minutes. • 10) The 384-well plate was placed into Envision and assay data was obtained.
(§1) The ratio for each compound concentration was calculated from the signal of the DMSO control group contained in each assay plate and the Alphalisa signal in each compound well. The compound concentration required for inhibitory concentration at 50% (IC50) was determined using a four-parameter logarithmic dose-response equation by testing the concentration of the compound and the value of the ratio. The endpoint value (IC50) of the reference compound was assessed in each experiment as a quality control measure. If the endpoint value is within three times the expected value, the experiment may be considered acceptable.

A further assay deals with AGS cell. The experiment in a line: Anti-proliferative 2D CTG assay, AGS cells. It counts as cell-based. Conditions: AGS cells, incubated 3 days, CTG, read-out: AGS cell IC50. The procedure:
When the cell confluence was about 80%, the cells were isolated with 0.25% trypsin. Isolated cells were resuspended in 5 mL fresh cell culture medium and centrifuged for cell collection. Meanwhile, the number of cells was also calculated. The cells were then suspended in culture medium of medium concentration. The cells were placed into a 96-well plate with 1000 cells/well for AGS and 1000 cells/well for GP2D. The 96-well plate was placed in an incubator at 37° C. and incubated overnight.
1.2 Day 1 Compound Treatment From the 10 mM stock solution, with a ratio of 1:5, 10-point serial dilutions were performed. The 10× medium containing the compound was transferred into corresponding wells of the 96 wells. The final maximum compound concentration was […] and the final DMSO concentration was 0.1%. The 96-well plate was placed in a 37° C. incubator, the AGS cells were incubated for 3 days, and the GP2D cells were incubated for 4 days.
50 μL/well of detection reagent (CTG) was added to the AGS cells, and the signal was read in an Envision machine.
as §1, with “The percent inhibition (%) at” for “The ratio for”, “signal in” for “signal of”, “the HPE and ZPE” for “the DMSO”, “control wells and the fluorescence signal in the individual compound wells included” for “control group contained”, “assay plate. […]” for “assay plate and the Alphalisa signal in each compound well.”, “the inhibition percentage value.” for “the value of the ratio.”

The mark [1] stands for this setting: Homo sapiens, 72 h, class symbols.
The mark [2] stands for this setting: Homo sapiens, 72 h, numeric values.

Chain of KRAS^G12D/cRAF (P01116 1-188 isoform P01116-2 G12D): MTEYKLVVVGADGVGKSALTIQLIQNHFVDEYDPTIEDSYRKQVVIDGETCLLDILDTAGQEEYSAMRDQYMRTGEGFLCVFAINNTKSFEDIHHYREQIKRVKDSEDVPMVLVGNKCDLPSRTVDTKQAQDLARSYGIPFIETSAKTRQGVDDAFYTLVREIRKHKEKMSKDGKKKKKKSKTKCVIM

With `C#Cc1c(F)ccc2cc(O)cc(-c3ncc4c(N5CC6CCC(C(=O)OC)(C5)N6)nc(OC[C@@]56CCCN5C[C@H](F)C6)nc4c3F)c12` (stereo partly drawn) [Example 23, methyl 3-(7-(8-ethynyl-7-fluoro-3-hydroxynaphthalen-1-yl)-8-fluoro-2-(((2R,7aS)-2-fluorotetrahydro-1H-pyrrolizin-7a(5H)-yl)methoxy)pyrido[4,3-d]pyrimidin-4-yl)-3,8-diazabicyclo[3.2.1] octan-1-carboxylate], the IC50 on KRAS^G12D/cRAF (class symbols) and in the assay with AGS cell (setting [1]) was 50 to 500 nM in each case.
As to `C#Cc1c(F)ccc2cc(O)cc(-c3ncc4c(N5C[C@H]6CC[C@@](/C=C/F)(C5)N6)nc(OC[C@@]56CCCN5C[C@H](F)C6)nc4c3F)c12` [Example 61, 5-ethynyl-6-fluoro-4-(8-fluoro-2-(((2R,7aS)-2-fluorotetrahydro-1H-pyrrolizin-7a(5H)-yl)methoxy)-4-((1R,5R)-1-((E)-2-fluorovinyl)-3,8-diazabicyclo[3.2.1]octan-3-yl)pyrido[4,3-d]pyrimidin-7-yl)naphthalen-2-ol], the half-maximal inhibitory concentration (IC50) on KRAS^G12D/cRAF (numeric values) is 876 nM; in the assay on AGS cell (setting [2]), 816 nM.
On to `[2H]C([2H])([2H])OC[C@@]12CC[C@@H](CN(c3nc(OC[C@@]45CCCN4C[C@H](F)C5)nc4c(F)c(-c5cc(O)cc6ccc(F)c(C#C)c56)nc(OCC)c34)C1)N2` [Example 52, 4-(5-ethoxy-8-fluoro-2-(((2R,7aS)-2-fluorotetrahydro-1H-pyrrolizin-7a(5H)-yl)methoxy)-4-((1R,5S)-1-((methoxy-d3)methyl)-3,8-diazabicyclo[3.2.1]octan-3-yl)pyrido[4,3-d]pyrimidin-7-yl)-5-ethynyl-6-fluoronaphthalen-2-ol], for which the results for the 50% inhibitory concentration (IC50) at KRAS^G12D/cRAF (class symbols) and in the assay on AGS cell (setting [1]) were 50 to 500 nM and less than 50 nM, respectively.
In the same order, the values of `C#Cc1c(F)ccc2cc(O)cc(-c3ncc4c(N5CC6CCC(C(=O)O)(C5)N6)nc(OC[C@@]56CCCN5C[C@H](F)C6)nc4c3F)c12` (stereo partly drawn) [Example 22, 3-(7-(8-ethynyl-7-fluoro-3-hydroxynaphthalen-1-yl)-8-fluoro-2-(((2R,7aS)-2-fluorotetrahydro-1H-pyrrolizin-7a(5H)-yl)methoxy)pyrido[4,3-d]pyrimidin-4-yl)-3,8-diazabicyclo[3.2.1] octan-1-carboxylic acid] are 50 to 500 nM and greater than 500 nM.
Regarding `[2H]C([2H])([2H])OCC12CCC(CN(c3nc(OC[C@@]45CCCN4C[C@H](F)C5)nc4c(F)c(-c5cc(O)cc6ccc(F)c(C#C)c56)nc(C)c34)C1)N2` (stereo partly drawn) [Example 39, 5-ethynyl-6-fluoro-4-(8-fluoro-2-(((2R,7aS)-2-fluorotetrahydro-1H-pyrrolizin-7a(5H)-yl)methoxy)-4-(1-((methoxy-d3)methyl)-3,8-diazabicyclo[3.2.1]octan-3-yl)-5-methylpyrido[4,3-d]pyrimidin-7-yl)naphthalen-2-ol], the concentration for half-maximal inhibition (IC50) is 50 to 500 nM at KRAS^G12D/cRAF (class symbols) and less than 50 nM in the assay with AGS cell (setting [1]).
In the same order, the values of `[2H]C([2H])([2H])OC[C@]12CC[C@]([2H])(CN(c3nc(OC[C@@]45CCCN4C[C@H](F)C5)nc4c(F)c(-c5cc(O)cc6ccc(F)c(C#C)c56)ncc34)C1)N2` [Example 47, 5-ethynyl-6-fluoro-4-(8-fluoro-2-(((2R,7aS)-2-fluorotetrahydro-1H-pyrrolizin-7a(5H)-yl)methoxy)-4-((1S,5R)-1-((methoxy-d3)methyl)-3,8-diazabicyclo[3.2.1]octan-3-yl-5-d)pyrido[4,3-d]pyrimidin-7-yl)naphthalen-2-ol] are 50 to 500 nM and 50 to 500 nM.
With `C#Cc1c(F)ccc2cc(O)cc(-c3ncc4c(N5C[C@H]6CC[C@@](C)(C5)N6)nc(OC[C@@]56CCCN5C[C@H](F)C6)nc4c3F)c12` [Example 44], the concentration for half-maximal inhibition (IC50) on KRAS^G12D/cRAF (numeric values) amounted to 19 nM; with AGS cell (numeric values), 6.1 nM.
On to `C#Cc1c(F)ccc2cc(O)cc(-c3ncc4c(N5CC6CCC(/C=C\C)(C5)N6)nc(OC[C@@]56CCCN5C[C@H](F)C6)nc4c3F)c12` (stereo partly drawn) [Example 29, 5-ethynyl-6-fluoro-4-(8-fluoro-2-(((2R,7aS)-2-fluorotetrahydro-1H-pyrrolizin-7a(5H)-yl)methoxy)-4-(1-((Z)-prop-1-en-1-yl)-3,8-diazabicyclo[3.2.1]octan-3-yl)pyrido[4,3-d]pyrimidin-7-yl)naphthalen-2-ol], for which the IC50 was 50 to 500 nM at KRAS^G12D/cRAF (class symbols) and less than 50 nM in the assay with AGS cell (setting [1]).
Regarding `C#Cc1c(F)ccc2cc(O)cc(-c3ncc4c(N5CC6CCC(/C=C\F)(C5)N6)nc(OC[C@@]56CCCN5C[C@H](F)C6)nc4c3F)c12` (stereo partly drawn) [Example 27, 5-ethynyl-6-fluoro-4-(8-fluoro-2-(((2R,7aS)-2-fluorotetrahydro-1H-pyrrolizin-7a(5H)-yl)methoxy)-4-(1-((Z)-2-fluorovinyl)-3,8-diazabicyclo[3.2.1]octan-3-yl)pyrido[4,3-d]pyrimidin-7-yl) naphthalen-2-ol], the concentration for half-maximal inhibition (IC50) is 54 nM on KRAS^G12D/cRAF (numeric values) and 11 nM in the assay with AGS cell (setting [2]).
Consider `[2H]C12CCC(COC([2H])([2H])[2H])(CN(c3nc(OC[C@@]45CCCN4C[C@H](F)C5)nc4c(F)c(-c5cc(O)cc6ccc(F)c(C#C)c56)ncc34)C1)N2` (stereo partly drawn) [Example 3, 5-ethynyl-6-fluoro-4-(8-fluoro-2-(((2R,7aS)-2-fluorotetrahydro-1H-pyrrolizin-7a(5H)-yl)methoxy)-4-(1-((methoxy-d3)methyl)-3,8-diazabicyclo [3.2.1]octan-3-yl-5-d)pyrido [4,3-d]pyrimidin-7-yl)naphthalen-2-ol], for which, in the assay on AGS cell (setting [1]), the IC50 is less than 50 nM.
In the case of `C#Cc1c(F)ccc2cc(O)cc(-c3ncc4c(N5C[C@H]6CC[C@@](COC)(C5)N6)nc(OC[C@@]56CCCN5C[C@H](F)C6)nc4c3F)c12` [Example 45, 5-ethynyl-6-fluoro-4-(8-fluoro-2-(((2R,7aS)-2-fluorotetrahydro-1H-pyrrolizin-7a(5H)-yl)methoxy)-4-((1S,5R)-1-(methoxymethyl)-3,8-diazabicyclo[3.2.1]octan-3-yl)pyrido[4,3-d]pyrimidin-7-yl)naphthalen-2-ol], the IC50 at KRAS^G12D/cRAF (class symbols) is greater than 500 nM.
For the molecule `C#Cc1c(F)ccc2cc(O)cc(-c3ncc4c(N5C[C@@H]6CC[C@](CCF)(C5)N6)nc(OC[C@@]56CCCN5C[C@H](F)C6)nc4c3F)c12` [Example 56, 5-ethynyl-6-fluoro-4-(8-fluoro-4-((1S,5S)-1-(2-fluoroethyl)-3,8-diazabicyclo[3.2.1]octan-3-yl)-2-(((2R,7aS)-2-fluorotetrahydro-1H-pyrrolizin-7a(5H)-yl)methoxy)pyrido[4,3-d]pyrimidin-7-yl)naphthalen-2-ol], the IC50 in the assay on AGS cell (setting [1]) was less than 50 nM.
The same measure, in the same setting: the same measure for `[2H]C([2H])([2H])OCC12CCC(CN(c3nc(OC[C@@]45CCCN4C[C@H](F)C5)nc4c(F)c(-c5cc(O)cc6cc(C)c(F)c(C#C)c56)ncc34)C1)N2` (stereo partly drawn) [Example 17, 5-ethynyl-6-fluoro-4-(8-fluoro-2-(((2R,7aS)-2-fluorotetrahydro-1H-pyrrolizin-7a(5H)-yl)methoxy)-4-(1-((methoxy-d3)methyl)-3,8-diazabicyclo[3.2.1]octan-3-yl)pyrido[4,3-d]pyrimidin-7-yl)-7-methylnaphthalen-2-ol]: greater than 500 nM; for `C#Cc1c(F)ccc2cc(O)cc(-c3ncc4c(N5CC6CCC(C(C)O)(C5)N6)nc(OC[C@@]56CCCN5C[C@H](F)C6)nc4c3F)c12` (stereo partly drawn) [Example 13, 5-ethynyl-6-fluoro-4-(8-fluoro-2-(((2R,7aS)-2-fluorotetrahydro-1H-pyrrolizin-7a(5H)-yl)methoxy)-4-(1-(1-hydroxyethyl)-3,8-diazabicyclo[3.2.1]octan-3-yl)pyrido[4,3-d]pyrimidin-7-yl) naphthalen-2-ol]: 50 to 500 nM.
